13 compounds from patent US10098881B2, “Compounds” (AUTIFONY THERAPEUTICS LIMITED, priority 2011, dated 2018) can be followed below.

The test concerns the target T1, human Kv3.2 channels (hKv3.2) (Homo sapiens, UniProt Q96PR1).
T1 construct: expressed in transfected cells
T1 sequence (Q96PR1 1-638): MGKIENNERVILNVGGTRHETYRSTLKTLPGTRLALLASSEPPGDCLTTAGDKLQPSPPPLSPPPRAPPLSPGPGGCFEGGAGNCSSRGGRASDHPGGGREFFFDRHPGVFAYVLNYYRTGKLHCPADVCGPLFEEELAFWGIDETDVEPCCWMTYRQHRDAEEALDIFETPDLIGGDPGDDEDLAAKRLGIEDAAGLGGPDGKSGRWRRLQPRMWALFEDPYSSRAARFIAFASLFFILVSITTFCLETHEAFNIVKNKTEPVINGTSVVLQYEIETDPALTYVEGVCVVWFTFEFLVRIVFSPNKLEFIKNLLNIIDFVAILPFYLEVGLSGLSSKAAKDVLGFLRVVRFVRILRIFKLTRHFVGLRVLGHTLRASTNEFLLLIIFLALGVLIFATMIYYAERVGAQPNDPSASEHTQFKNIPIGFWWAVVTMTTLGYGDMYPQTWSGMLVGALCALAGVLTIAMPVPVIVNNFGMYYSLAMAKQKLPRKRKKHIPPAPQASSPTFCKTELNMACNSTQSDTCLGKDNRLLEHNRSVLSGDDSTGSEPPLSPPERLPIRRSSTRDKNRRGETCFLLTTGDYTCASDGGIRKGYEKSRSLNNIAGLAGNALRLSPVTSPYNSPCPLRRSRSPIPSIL
The test is described as follows: Biological Example 1: hKv3.2 whole-cell currents, IonWorks Quattro planar array electrophysiology. As to conditions: hKv3.2, -15 mV voltage step. It is filed as cell-based. From the text:
The ability of the compounds of the invention to modulate the voltage-gated potassium channel subtypes Kv3.2 or Kv3.1 may be determined using the following assay. Analogous methods may be used to investigate the ability of the compounds of the invention to modulate other channel subtypes, including Kv3.3 and Kv3.4.
To assess compound effects on human Kv3.2 channels (hKv3.2), a stable cell line expressing hKv3.2 was created by transfecting Chinese Hamster Ovary (CHO)-K1 cells with a pClH5-hKv3.2 vector. Cells were cultured in DMEM/F12 medium supplemented by 10% Foetal Bovine Serum, lx non-essential amino acids (Invitrogen) and 500 ug/ml of Hygromycin-B (Invitrogen). Cells were grown and maintained at 37° C. in a humidified environment containing 5% CO2 in air.
The day of the experiment, cells were removed from the incubator and the culture medium removed. Cells were washed with 5 ml of Dulbecco's PBS (DPBS) calcium and magnesium free and detached by the addition of 3 ml Versene (Invitrogen, Italy) followed by a brief incubation at 37° C. for 5 minutes. The flask was tapped to dislodge cells and 10 ml of DPBS containing calcium and magnesium was added to prepare a cell suspension. The cell suspension was then placed into a 15 ml centrifuge tube and centrifuged for 2 min at 1200 rpm. After centrifugation, the supernatant was removed and the cell pellet re-suspended in 4 ml of DPBS containing calcium and magnesium using a 5 ml pipette to break up the pellet. Cell suspension volume was then corrected to give a cell concentration for the assay of approximately 3 million cells per ml.
Experiments were conducted at room temperature using IonWorks Quattro™ planar array electrophysiology technology (Molecular Devices Corp.) with PatchPlate™ PPC. Stimulation protocols and data acquisition were carried out using a microcomputer (Dell Pentium 4). Planar electrode hole resistances (Rp) were determined by applying a 10 mV voltage step across each well. These measurements were performed before cell addition. […] Following this, amphotericin-B solution was added to the intracellular face of the electrode to achieve intracellular access. Cells were held at −70 mV. Leak subtraction was conducted in all experiments by applying 50 ms hyperpolarizing (10 mV) prepulses to evoke leak currents followed by a 20 ms period at the holding potential before test pulses. From the holding potential of −70 mV, a first test pulse to −15 mV was applied for 100 ms and following a further 100 ms at −70 mV, a second pulse to 40 mV was applied for 50 ms. Cells were then maintained for a further 100 ms at −100 mV and then a voltage ramp from −100 mV to 40 mV was applied over 200 ms. Test pulses protocol may be performed in the absence (pre-read) and presence (post-read) of the test compound. Pre- and post-reads may be separated by the compound addition followed by a 3 minute incubation.
The intracellular solution contained the following (in mM): K-gluconate 100, KCl 54, MgCl2 3.2, HEPES 5, adjusted to pH 7.3 with KOH. Amphotericin-B solution was prepared as […] stock solution in DMSO and diluted to a final working concentration of 0.1 mg/ml in intracellular solution.
Compounds of the invention (or reference compounds such as N-cyclohexyl-N-[(7,8-dimethyl-2-oxo-1,2-dihydro-3-quinolinyl)methyl]-N′-phenylurea were dissolved in dimethylsulfoxide (DMSO) at a stock concentration of 10 mM. These solutions were further diluted with DMSO using a Biomek FX
Each dilution (1 μL) was transferred to another compound plate and external solution containing 0.05% pluronic acid (66 μL) was added. 3.5 μL from each plate containing a compound of the invention was added and incubated with the cells during the lonWorks Quattro™ experiment. The final assay dilution was 200 and the final compound concentrations were in the range 50 μM to 50 nM.
In general terms: In patch-clamp work, channel activity is measured electrically.

The mark [1] stands for this setting: compound 1.6 μM (concentration giving ~0.3 nA current at end of pulse).
Where [2] appears, read: compound 0.8 μM (concentration giving ~0.3 nA current at end of pulse).
[3] abbreviates: compound 0.4 μM (concentration giving ~0.3 nA current at end of pulse).

Under setting [1], `CC[C@@]1(C)NC(=O)N(c2cnc(Oc3ccc(C)c4c3C3(CC3)CO4)nc2)C1=O` [Example 1, (5R)-5-ethyl-5-methyl-3-[2-(7-methylspiro[2H-benzofuran-3,1′-cyclopropane]-4-yl)oxypyrimidin-5-yl]imidazolidine-2,4-dione] registered a Tauact mean of 21.3 ms.
On the same count and under the same terms, as for `CC[C@@]1(C)NC(=O)N(c2cnc(Oc3ccc(C)c4c3C(C)(C)CO4)nc2)C1=O` [Example 2, (5R)-5-ethyl-5-methyl-3-{2-[(3,3,7-trimethyl-2,3-dihydro-1-benzofuran-4-yl)oxy]-5-pyrimidinyl}-2,4-imidazolidinedione], the figure is 14.8 ms.
`CC[C@@]1(C)NC(=O)N(c2cnc(Oc3ccc(C)c4c3OC(F)(F)O4)nc2)C1=O` [Example 3, (5R)-3-{2-[(2,2-difluoro-7-methyl-1,3-benzodioxol-4-yl)oxy]-5-pyrimidinyl}-5-ethyl-5-methyl-2,4-imidazolidinedione] gave a Tauact mean (compound 25.0 μM (concentration giving ~0.3 nA current at end of pulse)) of 8.9 ms.
Compound `CC[C@H]1NC(=O)N(c2cnc(Oc3ccc(C)c4c3C3(CC3)CO4)nc2)C1=O` [Example 5, (5R)-5-ethyl-3-[2-(7-methylspiro[2H-benzofuran-3,1′-cyclopropane]-4-yl)oxypyrimidin-5-yl]imidazolidine-2,4-dione] returned a Tauact mean under setting [2] of 31.5 ms.
As to `CC[C@H]1NC(=O)N(c2ccc(Oc3ccc(C)c4c3C3(CC3)CO4)nc2)C1=O` [Example 6, (5R)-5-ethyl-3-[6-(7-methylspiro[2H-benzofuran-3,1′-cyclopropane]-4-yl)oxy-3-pyridyl]imidazolidine-2,4-dione], the Tauact mean under setting [3] is given as 34.8 ms.
Regarding `CC[C@H]1NC(=O)N(c2ccc(Oc3ccc(C)c4c3C(C)(C)CO4)nc2)C1=O` [Example 7, (5R)-5-ethyl-3-{6-[(3,3,7-trimethyl-2,3-dihydro-1-benzofuran-4-yl)oxy]-3-pyridinyl}-2,4-imidazolidinedione], under setting [3], the Tauact mean amounted to 28.0 ms.
`CC[C@H]1NC(=O)N(c2cnc(Oc3ccc(C)c4c3C(C)(C)CO4)nc2)C1=O` [Example 8, (5R)-5-ethyl-3-{2-[(3,3,7-trimethyl-2,3-dihydro-1-benzofuran-4-yl)oxy]-5-pyrimidinyl}-2,4-imidazolidinedione] registered a Tauact mean under setting [1] of 25.0 ms.
With `CC[C@@]1(C)NC(=O)N(c2ccc(Oc3ccc(C)c4c3C3(CC3)CO4)nc2)C1=O` [Example 9, (5R)-5-ethyl-5-methyl-3-[6-(7-methylspiro[2H-benzofuran-3,1′-cyclopropane]-4-yl)oxy-3-pyridyl]imidazolidine-2,4-dione], under setting [2], the Tauact mean amounted to 24.0 ms.
Under setting [1], `Cc1ccc(Oc2ccc(N3C(=O)NC(C)(C)C3=O)cn2)c2c1OCC21CC1` [Example 10, 5,5-dimethyl-3-[6-(7-methylspiro[2H-benzofuran-3,1′-cyclopropane]-4-yl)oxy-3-pyridyl]imidazolidine-2,4-dione] came in with a Tauact mean of 17.3 ms.
Take `CC[C@H]1NC(=O)N(c2ccc(Oc3ccc(C)c(OC)c3)nc2)C1=O` [RE1, (5R)-5-ethyl-3-(6-{[4-methyl-3-(methyloxy)phenyl]oxy}-3-pyridinyl)-2,4-imidazolidinedione, reference compound]: under “compound 6.25 μM (concentration giving ~0.3 nA current at end of pulse)”, the Tauact mean turned out to be 9.9 ms.
For the compound `CC[C@@]1(C)NC(=O)N(c2ccc(Oc3ccc(C)c(OC)c3)nc2)C1=O` [RE2, (5R)-5-ethyl-5-methyl-3-(6-{[4-methyl-3-(methyloxy)phenyl]oxy}-3-pyridinyl)-2,4-imidazolidinedione, reference compound], the Tauact mean (compound 12.5 μM (concentration giving ~0.3 nA current at end of pulse)) is on record as 7.3 ms.
`CC[C@H]1NC(=O)N(c2ccc(Oc3ccc(C#N)cc3C(C)(C)C)nc2)C1=O` [RE3, 3-(1,1-dimethylethyl)-4-({5-[(4R)-4-ethyl-2,5-dioxo-1-imidazolidinyl]-2-pyridinyl}oxy)benzonitrile, reference compound]: the Tauact mean (compound 0.2 μM (concentration giving ~0.3 nA current at end of pulse)) amounted to 23.0 ms.
Under setting [2], `CC[C@H]1NC(=O)N(c2ccc(Oc3ccc(C#N)c(C(C)C)c3)nc2)C1=O` [RE4, 4-({5-[(4R)-4-ethyl-2,5-dioxo-1-imidazolidinyl]-2-pyridinyl}oxy)-2-(1-methylethyl)benzonitrile, reference compound] returned a Tauact mean of 9.2 ms.
